Consider 18 compounds from PubChem BioAssay (NCI).

What all share (assay): NCI tumour cell line growth inhibition, 48 h
Experiment [1] relates to A498 renal.
Experiment [2] has as its system A549 NSCLC.
For experiment [3], the system named is K-562 leukemia.
Experiment [4] relates to MALME-3M melanoma.
For experiment [5], the system named is OVCAR-4 ovarian.
Experiment [6] concerns SF-268 CNS.
Experiment [7] relates to SK-MEL-2 melanoma.
Experiment [8] concerns SN12C renal.
Experiment [9] concerns SW-620 colon.
The test system of experiment [10] is UACC-257 melanoma.

Molecules are shown by their SMILES.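 Cells were grown in 96-well plates and exposed to each compound for 48 hours at five concentrations; endpoints were interpolated linearly between bracketing concentrations, or set to the highest concentration if not reached. Here, GI50 denotes the concentration required for 50% inhibition of growth. Definition used: TGI = concentration required for complete inhibition of growth.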 Where a SMILES comes first, the peptide text is derived from it. The star is where a group is joined. Palmitoyl = CCCCCCCCCCCCCCCC(=O)*

On to `O[C@@]12Cc3c([nH]c4ccccc34)[C@@H]3Oc4cccc5c4[C@@]31CCN(CC1CC1)[C@@H]2C5`, for which the TGI in experiment [1] turned out to be 40.5 µM; in experiment [2], 43.5 µM; in [3], 55.4 µM; in [4], 33.9 µM; in [5], 41.3 µM; in [6], 34 µM. Also, the TGI in [7] came out at 41.5 µM; in experiment [8], 37 µM; in experiment [9], 25.7 µM; in experiment [10] it was 42 µM.
In the case of `CCOC(=O)c1c(C)n(-c2ccc(Cl)cc2)c2c1cc(O)c1[nH]c3c(c12)CCCC3`, the TGI in [1], in [2], in [3], in experiment [4], in experiment [5] and in [6] was greater than 100 µM in each case. The TGI in [7] was 92.9 µM; in experiment [8], greater than 100 µM; in [9], greater than 100 µM; in experiment [10], greater than 100 µM.
Consider `COC(=O)C1=C(OC(=O)/C(=C/c2ccc(Cl)cc2)c2ccc(Cl)cc2)C(C(=O)OC)[C@]2(O)[C@@H](C(=O)OC)[C@H]1C[C@@H](c1ccccc1)[C@@H]2C(=O)OC` (some centres not stated), for which the TGI in [2], in experiment [3], in experiment [5], in [6], in experiment [7] and in [8] was greater than 100 µM in each case. Further, the TGI in [9] and in experiment [10] was greater than 100 µM in each case.
In the case of `c1cnc2c(c1)ccc1cccnc12`, the TGI in experiment [1] was greater than 100 µM; in [2], greater than 100 µM; in [3], greater than 52.7 µM; in experiment [4], greater than 35.3 µM; in [5], greater than 88.4 µM; in experiment [6] it was greater than 100 µM. The TGI in [7] is greater than 100 µM; in experiment [8] it was greater than 28.2 µM; in [9] it was greater than 100 µM; in experiment [10] it was greater than 31.5 µM.
Take `COc1cc(C(C)O)c[n+](Cc2ccccc2)c1` (configuration not stated): the TGI in experiment [1], in experiment [2], in [3], in experiment [4], in experiment [5] and in experiment [6] was greater than 100 µM each time. Moreover, the TGI in experiment [7], in experiment [8], in experiment [9] and in [10] was greater than 100 µM in each case.
Regarding `C/C(=N/N=C(\[O-])c1ccncc1)C(F)(F)F.C/C(=N\N=C(/[O-])c1ccncc1)C(F)(F)F.[Ni+2]`, the GI50 in experiment [1], in [3], in [4], in [6], in [7] and in experiment [9] was greater than 1 µM each time. Further, the GI50 in [10] is greater than 1 µM. In addition, the TGI in experiment [1], in [3], in [4], in [6], in experiment [9] and in experiment [10] was greater than 1 µM throughout.
Consider `CN1C(c2ccccc2)CC(=O)C(N)C1c1ccccc1` (configuration not stated), for which the TGI in experiment [1] was greater than 100 µM; in experiment [2], greater than 100 µM; in [3] it was greater than 67.6 µM; in experiment [4], 50 µM; in [5], greater than 100 µM; in experiment [6] it was greater than 100 µM. Moreover, the TGI in experiment [7] was 41.1 µM; in experiment [8], 97.6 µM; in experiment [9], 57.1 µM; in experiment [10], greater than 87.1 µM.
`Nc1[nH]c(=O)nc2c1cnn2C1CCCCO1` (configuration not stated): the TGI in experiment [1], in experiment [2], in [3], in experiment [4], in [5] and in [6] was greater than 100 µM in each case. The TGI in [7], in [8], in experiment [9] and in [10] was greater than 100 µM in each case.
For the compound `c1ccc(-c2nc(N3CCNCC3)c3oc(-c4ccccc4)nc3n2)cc1`, the GI50 in [1] was 1.62 µM; in experiment [3] it was 0.428 µM; in experiment [4], 1.7 µM; in experiment [5] it was 1.68 µM; in experiment [6] it was 1.73 µM; in experiment [7] it was 2.31 µM. In addition, the figures for the GI50 in [8] and in experiment [9] were 1.61 µM and 1.35 µM, respectively. Also, the TGI amounted to 3.07 µM in experiment [1]; 2.35 µM in [3]; 3.17 µM in experiment [4]; 3.19 µM in experiment [5]; 3.46 µM in experiment [6]; 5.42 µM in [7]. Further, the TGI in [8] was 2.98 µM; in [9] it was 2.94 µM.
Consider `CON(C)c1nc(N(C)OC)nc(N(C)OC)n1`, for which the TGI in [1], in [2], in experiment [3], in experiment [4], in experiment [5] and in experiment [6] was greater than 10 µM throughout. The TGI in [7], in experiment [8] and in experiment [9] was greater than 10 µM in each case.
Take `CCCCCCCCCCCCCCCC(=O)N1CCCC1C(=O)NCC(=O)NC(Cc1ccccc1)C(=O)NC(C)C(=O)NC(CO)C(=O)NC(Cc1ccc(O)cc1)C(=O)NC(CCCCN)C(=O)NC(CC(C)C)C(=O)NC(CCCN=C(N)N)C(=O)N1CCCC1C(=O)NCC(N)=O` (configuration not stated) (Palmitoyl-PGFASYKLRPG-NH2; configuration not given here): the GI50 in experiment [1] was 37.4 µM; in experiment [2], 21.3 µM; in [3] it was 18.3 µM; in experiment [4] it was 18 µM; in experiment [5], 33.8 µM; in experiment [6], 16.3 µM. Moreover, the GI50 was 34.6 µM in experiment [7], 37.5 µM in experiment [9] and 26.4 µM in experiment [10]. Also, the TGI in [1] was greater than 100 µM; in experiment [2], 40.8 µM; in experiment [3] it was 32.2 µM; in [4], 47.3 µM; in experiment [5] it was 92.6 µM; in [6], 36 µM. In addition, the figures for the TGI in experiment [7], in [9] and in experiment [10] were greater than 100 µM, greater than 100 µM and 52.7 µM, respectively.
As to `Cc1c(-c2ccccc2)[nH]c2cc(Cl)ccc2c1=O`, the TGI in experiment [1] was greater than 100 µM; in experiment [2], greater than 100 µM; in [3], greater than 100 µM; in [4] it was greater than 100 µM; in experiment [5], 66.3 µM; in experiment [6], greater than 100 µM. Moreover, the TGI in experiment [7], in [8] and in experiment [10] was greater than 100 µM in each case.
`Nc1nc(Nc2ccccc2)c2[nH]cnc2n1`: the TGI in experiment [1] was 81.7 µM; in experiment [2], greater than 100 µM; in experiment [3] it was greater than 100 µM; in experiment [4] it was greater than 100 µM; in experiment [5], greater than 100 µM; in [7], greater than 100 µM. Besides, the TGI in experiment [8], in experiment [9] and in experiment [10] was greater than 100 µM in each case.
`CC1=C(O)C2=C(C(=O)C1=O)[C@@H](C)CC[C@@H]2[C@@H](C)C/C=C/C(C)(C)O`: the TGI in [1], in [2], in experiment [3], in experiment [6], in experiment [7] and in experiment [8] was greater than 100 µM in each case. The TGI in experiment [9] and in experiment [10] was greater than 100 µM each time.
For `OCCN(CCO)c1ncnc2nc[nH]c12`, the TGI in [1], in experiment [2], in [3], in experiment [4], in experiment [5] and in experiment [6] was greater than 100 µM each time. The TGI in experiment [8], in experiment [9] and in experiment [10] was greater than 100 µM throughout.
Regarding `CCN1CCC(O)(/C=C/c2ccccc2C)C(C(=O)/C=C/c2ccccc2C)C1` (configuration not stated), the TGI in experiment [1] is 4.55 µM; in [2], 12.8 µM; in [3], greater than 100 µM; in experiment [4], 16.3 µM; in experiment [5] it was 12.5 µM; in experiment [6], 14 µM. For the same compound, the TGI in experiment [7] was determined as 5.57 µM; in experiment [8] it was 4.6 µM; in experiment [9], 10.1 µM; in experiment [10] it was 9.31 µM.
Regarding `CC(N)Cc1ccc(Cl)c(Cl)c1` (configuration not stated), the TGI is greater than 90.6 µM in [1]; greater than 100 µM in experiment [2]; 44 µM in experiment [3]; 35.5 µM in experiment [4]; greater than 100 µM in [5]; greater than 100 µM in experiment [6]. In addition, the TGI in experiment [7] is 37.6 µM; in experiment [8], greater than 74 µM; in [9], 51.8 µM; in experiment [10] it was 54.9 µM.
As to `Nc1nc(O)c2ncn([C@H]3CC[C@@H](CO)O3)c2n1`, the TGI in [1], in experiment [3], in [4], in experiment [5], in experiment [7] and in experiment [8] was greater than 100 µM throughout. Moreover, the TGI in [9] and in experiment [10] was greater than 100 µM throughout.
